Marks after values point to notes of the source that are not given here.

This is an account of results in patent US9816075B2, “Compounds with modifying activity enhanced under hypoxic conditions” (Board of Regents, The University of Texas System, priority 2005, dated 2017).

In data set [1] the test system is H358, a bronchioalveolar non-small cell lung cancer cell line. Briefly: MTT drug sensitivity assay. It is filed as cell-based. The following applies: 96 hours incubation; concentration that reduced formazan formation by 50%. As to the method: For cytotoxicity of suitable compounds a standard MTT drug sensitivity assay was performed on cancer cells, including H358, a bronchioalveolar non-small cell lung cancer cell line. Cell density in an aliquot of cells growing in log phase was determined by counting trypan blue excluding cells in a hemocytometer and 20,000 cells were plated into each well of 96-well flat-bottomed microliter plates.
For orientation: Tetrazolium dyes change colour on reduction, which living cells bring about.

Data set [2] is described as follows: Animal toxicity screen / MTD by intraperitoneal injection. The settings on record: for MTD: intraperitoneal, mice, a = maximum dose due to poor solubility, b = acutely toxic with a single animal at 0.2 mg in 200 μL (about 6.0 mg/kg); for survival in toxicity screen: 0.2 mg in 200 μL 10 mM Tris buffer pH 7.5, intraperitoneal.
Description: Animal toxicity screens were performed by intraperitoneal injection of suitable compounds in C57BL/6NTac mice (each with an approximate weight of 30 g). For each animal, 0.2 mg of each compound in 200 μL 10 mM Tris buffer, pH 7.5 was used. […] These were further examined by injecting at least three mice with 200 μL of a freshly prepared aqueous solution of each compound at concentrations of 0.5 mg/mL, 2 mg/mL, 5 mg/mL, 10 mg/mL, 25 mg/mL and 50 mg/mL to determine MTD values.
The nature of data set [3]: Cyclic voltammetry / reduction potentials. The settings on record: cyclic voltammetry in aqueous solution, versus normal hydrogen electrode. It is filed as physicochemical. The text has this:
This is depicted in FIG. 4 in which compounds having a tatpp or tatpq bridging ligand are provided as examples. Preferred bridging ligands have modest potentials in order for them to be accessible in a cellular milieu. […] For TJ-7p of FIG. 2, a compound in which tatpq is the bridging ligand, the first two reductions were at 70 mV and −80 mV versus the normal hydrogen electrode. These potentials are modest and easily accessible in a cellular milieu.
The reduction potential for compounds is such that these compounds are accessible to one or more reducing agents, especially in biologic conditions. For example, the bridging ligand, tatpp, when bound by two ruthenium ions in P^4+, has a reduction potential […] of about −0.22 V versus Ag/AgCl in acetonitrile. An alternate charged form of P^4+, P^3+, has an E1/2 of about −0.71 V versus Ag/AgCl in acetonitrile. These E1/2 values of the complexes make them accessible to one or more suitable reducing agents in biologic conditions.

The next data set deals with calf thymus Topo I. The data set is described as follows: Topoisomerase I relaxation of supercoiled DNA. It is filed as biochemical. The following applies: 0.62-3.08 μM. Here is the method: FIGS. 19 and 20 illustrate the ability of suitable compounds to modify Topo I and Topo II. […] For FIG. 19, lane M was the marker lane containing forms I, II and III of a DNA. For all other lanes, the DNA was supercoiled pUC18 at 30.8 μM per reaction. Lane 1 was, the DNA used was pUC18 at 30.8 μM base pairs per reaction, without compound or inhibitor. Lane 2 was DNA with Tope I and no compound. Lane 3 was DNA with inhibitor, CPT. Lane 4-6 included varying concentrations of P^4+ (3.08 μM, 1.54 μM and 0.62 μM, respectively). Lane 7-9 included varying concentrations of Q^4+ (3.08 μM, 1.54 μM and 0.62 μM, respectively).
Reaction conditions for FIGS. 19 and 20 included the addition of DNA and 5 units of calf thymus Topo I in the presence or absence of either a known inhibitor (CPT), P^4+ or Q^4+. Both P^4+ and Q^4+ were examined at varying concentrations, 0.62 μM-3.08 μM. Samples were incubated at 37 degrees Centigrade in an assay buffer (e.g., 10 mM Tri-HCl at pH 7.9, 150 mM NaCl, 1 mM EDTA, 0.1% BSA, 0.1 mM spermidine, and 5% glycerol) for about 30 minutes to allow for appropriate cleavage and religation. Relaxed intermediates were then trapped by adding 5 μL of a stopping buffer (e.g., 5% SDS, 0.05% bromophenol blue and 30% glycerol). […]

A further data set relates to Topo II. Briefly: Topoisomerase II activity on supercoiled DNA. It is filed as biochemical. The following applies: 0.46-2.31 μM. As to the method:
As shown, M was the marker lane containing forms I, II and III of a DNA. For all other lanes, the DNA was supercoiled pUC18 at 30.8 μM base pairs per reaction. Lane 1 was DNA without compound or inhibitor. Lane 2 was DNA with Topo H and no compound. Lane 3 was DNA with inhibitor, m-AMSA. Lanes 4-6 included varying concentrations of P^4+ (2.31 μM, 1.15 μM and 0.46 μM, respectively). Lanes 7-9 included varying concentrations of Q^4+ (2.31 μM, 1.15 μM and 0.46 μM, respectively).
For conditions using Topo II, reactions were generally performed as described for Topo I, except that 23.1 μM of DNA was used per reaction along with either the inhibitor (m-AMSA) or varying concentrations of P^4+ or Q^4+ (0.46 to 2.31 μM) in a total volume of 20 μL. The assay buffer was altered for improved Topo II activity (using 10 mM Tris-HCl at pH 7.9, 50 mM NaCl, 50 mM KCl, 5 mM MgCl2, 0.1 mM EDTA, 0.15 mg mL BSA, and 1 mM ATP) as was the running buffer (using 100 mM Tris-borate, pH 8.3, 2 mM BDTA).

A further data set has as its system supercoiled pUC18 DNA. The data set is described as follows: Modification (strand breaks) of supercoiled plasmid DNA, gel electrophoresis. It is filed as biochemical. The following applies: 12.8 μM, anaerobic, about one hour. Here is the method:
Referring now to FIG. 6, supercoiled DNA (0.154 mM base pairs) was modified by a diastereomeric mixture of the P^4+ complex in the presence and absence of a reducing agent. Lane M was the marker lane. Lane 1 was a DNA control without a reducing agent. Lane 2 included DNA without P^4+ under aerobic conditions (e.g., in the presence of oxygen or O2) with GSH, Lane 2′ included DNA with GSH (0.513 mM) without P^4+ under anaerobic conditions (e.g., hypoxia). Lanes 3, 4 and 5 were representative of modifications under aerobic (O2) conditions and lanes 2′, 3′, 4′ and 5′ were representative of modifications under anaerobic (hypoxia or absent O2) conditions. […]
Modification reactions were carried out in 0.5 mL Eppendorf tubes with 2 μL of a supercoiled pUC18 DNA (1 μg/1 μL) in a total volume of 20 μL using a 5 mM sodium phosphate buffer (pH 7). […] DNA was then dried for about 30 minutes and resuspended in about 40 μL of a storage buffer (e.g., 40 mM Tris-Cl, 1 mM EDTA at pH 8.0) with 65 μL of deionized water and 12 μL of a loading buffer (e.g., 30% glycerol in water with 0.1% w/v bromophenol blue), Each reaction was then evaluated by standard gel electrophoresis methods (e.g., loaded on 1% agarose gel stained with ethidium bromide and electrophoresed at about 80 volts for about 90 minutes using a Tris-acetate-EDTA buffer at pH 8.0). […]

What is called IC50 is the midpoint of a concentration-inhibition curve. The low end stands for greater potency, the high end for weaker potency. In turn, [Ru2(bpy)2(tpphz)(CH3CN)4]^4+ returned an IC50 in data set [1] of 21 ± 2 µM. Besides, the MTD in data set [2] is <6^b mg/kg.

As for “[Ru2(phen)4tatpq]^4+ [[Ru2(phen)4(tatpq)]^4+]”, in data set [1], the IC50 amounted to 1 ± 0.1 µM. Besides, in data set [3], the first reduction potential turned out to be 70 mV and the second reduction potential is reported as −80 mV. The “Topo I inhibition compared with camptothecin (CPT)” value in the data set with calf thymus Topo I is “better than that of the known inhibitor, camptothecin”. In addition, the “Topo I inhibition, FIG. 19” value in the data set with calf thymus Topo I (37 degrees Centigrade, about 30 minutes) is “inhibited Topo I and its relaxation of supercoiled DNA”. Besides, in the data set on Topo II, the “Topo II inhibition compared with amsacrine (m-AMSA)” value is given as “better than that of the known inhibitor, amsacrine”; the “Topo II inhibition, FIG. 20” value is “inhibited Topo II and its activity on supercoiled DNA”. Also, the “survival in toxicity screen” value in data set [2] is given as “survived”.

[Ru2(bpy)2(tpphz)(CO)2(Cl)2]^4+: half-maximal inhibition in data set [1] (IC50) was put at 8 ± 1 µM. Besides, in data set [2], the MTD is reported as <6^b mg/kg.

Take [Ru2(bpy)2(tpphz)(CO)4]^4+: the MTD in data set [2] is listed as >6^a mg/kg.

In data set [1], “[Ru2(phen)4tatpp]^4+ [[Ru2(phen)4(tatpp)]^4+]” gave a 50% inhibitory concentration (IC50) of 8 ± 1 µM. In data set [3], this substance displayed a first reduction potential of 170 mV and a second reduction potential of −180 mV. Further, the “survival in toxicity screen” value in data set [2] is listed as “survived”.

Substance [Ru2(bpy)2(tpphz)(C2O4)2] gave an IC50 in data set [1] of 100 ± 10 µM. For the same substance, in data set [2], the MTD is reported as >15^a mg/kg.

As for Iron(II)-Bleomycin [Fe-BLM], the “DNA modification in the absence of oxygen, FIG. 7” value with supercoiled pUC18 DNA is “unable to modify or break DNA in the absence of oxygen”.
